pIC50: −log10 of the molar value. Where two headings read alike, the source gives them in different places.
What was measured:
[1] = tested on: primary human hepatocytes (PHH); assay: Cytotoxicity (cellular ATP, CellTiter-Glo) in 2D plated primary human hepatocytes, 48 h treatment; type: cell-based; conditions: for pIC50: read-out: Geomean IC50;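 for all read-outs here: 384-well plates, luminescence read-out, normalized to vehicle wells with 1% DMSO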
[2] = cited from earlier work
[3] = cited from earlier work; for DILI category: clinical, from literature and product labels, ref Garside et al. 2014
[4] = ref Chen et al 2016 / Chen et al 2011; cited from earlier work
[5] = tested on: 3D human liver microtissues (hLiMT); assay: Cytotoxicity (cellular ATP, CellTiter-Glo 2.0) in 3D human liver microtissues, 14 day repeat-dose treatment; conditions: for IC50: Homo sapiens, Hepatocyte, 336 h, read-out: Geomean IC50 [µM]; for pIC50: read-out: Geomean IC50, decrease in total cellular ATP content, hLiMT treated for 14 days, hepatocyte lot IZT (except Dexamethasone) co-cultured with NPCs, n=1 or geometric mean
[6] = Hepatocyte, 2D primary human hepatocytes (lot IZT), 48 h treatment, total cellular ATP content
[7] = human Cmax total, used for IC50/Cmax
[8] = human total plasma Cmax, ref literature values
[9] = Table 1, ref Garside et al. (2014)
[10] = clinical DILI severity category, 1-5
[11] = 2D primary human hepatocytes (lot IZT), 48 h treatment, total cellular ATP content

Row | SMILES | pIC50 [1, 6] | Cmax [2, 7] | Cmax [2, 8] | IC50 [5] | also measured
1 | CC(=O)Oc1ccccc1C(=O)O [Acetylsalicylic acid] | < 3.00 | 1110 µM | 1110 µM | > 1000 µM | DILI severity category [3, 9]: 3: Low clinical DILI concern (N = 23); DILI severity category [3, 10]: 3. Low Clinical DILI Concern; DILI category [3]: 3. Low Clinical DILI Concern; FDA DILI Classification DILI severity score [4]: 5
2 | CN(C)CCC=C1c2ccccc2CCc2ccccc21 [Amitriptyline] | 4.38 | 0.721 µM | 0.72 µM | 18.8 µM | DILI severity category [3, 9]: 3: Low clinical DILI concern (N = 23); DILI severity category [3, 10]: 3. Low Clinical DILI Concern; DILI category [3]: 3. Low Clinical DILI Concern; FDA DILI Classification DILI severity score [4]: 5; LTKB DILI classification [4]: less DILI concern
3 | CCN(CC)Cc1cc(Nc2ccnc3cc(Cl)ccc23)ccc1O [Amodiaquine] | 4.73 | 1.91 µM | 1.91 µM | < 7.8 µM | DILI severity category [3, 9]: 2: High clinical DILI concern (N = 23); DILI severity category [3, 10]: 2. High Clinical DILI Concern; DILI category [3]: 2. High Clinical DILI Concern
4 | Cc1ccc(-c2cc(C(F)(F)F)nn2-c2ccc(S(N)(=O)=O)cc2)cc1 [Celocoxib] | – | 2.54 µM | 2.54 µM | – | pIC50 [1, 11]: 3.81; DILI severity category [3, 9]: 2: High clinical DILI concern (N = 23); DILI severity category [3, 10]: 2. High Clinical DILI Concern; DILI category [3]: 2. High Clinical DILI Concern; pIC50 [5]: 4.58
5 | CN1CCN(C2=Nc3cc(Cl)ccc3Nc3ccccc32)CC1 [Clozapine] | – | 2.4 µM | 2.45 µM | – | –
6 | O=P1(N(CCCl)CCCl)NCCCO1 (stereo not shown) [Cyclophosphamide] | – | – | – | > 2000 µM | pIC50 ([1]; Homo sapiens, Hepatocyte, 48 h): < 2.70; Cmax ([2]; human, in vivo): 143 µM
7 | N[C@@H]1CON=C1O [Cycloserine] | < 5.00 | 333 µM | 333 µM | 7460 µM | –
8 | C#C[C@]1(O)CC[C@H]2[C@@H]3CCC4=Cc5oncc5C[C@]4(C)[C@H]3CC[C@@]21C [Danazol] | 3.97 | – | 207 µM | > 100 µM | –
9 | CNCCCN1c2ccccc2CCc2ccccc21 [Desipramine] | – | 1.88 µM | 1.88 µM | – | DILI severity category [3, 9]: 3: Low clinical DILI concern (N = 23); DILI severity category [3, 10]: 3. Low Clinical DILI Concern; DILI category [3]: 3. Low Clinical DILI Concern; FDA DILI Classification DILI severity score [4]: 3; LTKB DILI classification [4]: Ambiguous DILI concern
10 | C[C@H]1O[C@@H](O[C@H]2[C@@H](O)C[C@H](O[C@H]3[C@@H](O)C[C@H](O[C@H]4CC[C@@]5(C)[C@H](CC[C@@H]6[C@@H]5C[C@@H](O)[C@]5(C)[C@@H](C7=CC(=O)OC7)CC[C@]65O)C4)O[C@@H]3C)O[C@@H]2C)C[C@H](O)[C@@H]1O [Digoxin] | – | – | – | 0.33 µM | pIC50 ([1]; Homo sapiens, Hepatocyte, 48 h): > 6.82; classification at 100 μM IC50 threshold ([1]; PHH 48 h): false positives; classification at 50× MOS threshold ([1]; PHH 48 h): false positive; classification at 100 μM IC50 threshold ([5]; hLiMT 14 days): false positives
11 | CCN1C(=O)NC(c2ccccc2)C1=O (stereo not shown) [Ethotion] | < 2.90 | 367 µM | 367 µM | > 150 µM | –
12 | CCOC(=O)C1=C(C)NC(C)=C(C(=O)OC)C1c1cccc(Cl)c1Cl (stereo not shown) [Felodipine] | < 5.00 | 0.03 µM | 0.03 µM | > 10 µM | –
13 | Cc1onc(-c2c(F)cccc2Cl)c1C(=O)N[C@@H]1C(=O)N2[C@@H]1SC(C)(C)[C@@H]2C(=O)O [Flucloxacillin] | 2.33 | 66.1 µM | 66.1 µM | 12200 µM | DILI severity category [3, 9]: 2: High clinical DILI concern (N = 23); DILI severity category [3, 10]: 2. High Clinical DILI Concern; DILI category [3]: 2. High Clinical DILI Concern
14 | CNCCC(Oc1ccc(C(F)(F)F)cc1)c1ccccc1 (stereo not shown) [Fluoxetine] | – | 0.05 µM | 0.05 µM | – | –
15 | CN1[C@@H]2CC[C@H]1C[C@@H](OC(=O)[C@H](CO)c1ccccc1)C2 [Hyoscyamine (Daturine)] | – | – | – | – | pIC50 [1, 11]: < 5.00; pIC50 [5]: < 5.00
16 | CN(C)CCCN1c2ccccc2CCc2ccccc21 [Imipramine] | – | 0.54 µM | 0.53 µM | – | –
17 | C[C@H]1COc2c(N3CCN(C)CC3)c(F)cc3c(=O)c(C(=O)O)cn1c23 [Levofloxacin] | < 3.30 | 15.8 µM | 15.8 µM | > 320 µM | –

Row | SMILES | pIC50 [1, 6] | Cmax [2, 7] | Cmax [2, 8] | IC50 [5] | also measured
18 | N[C@@H](Cc1cc(I)c(Oc2ccc(O)c(I)c2)c(I)c1)C(=O)O [Liothyronine] | – | 0.00246 µM | 0.00246 µM | > 10 µM | pIC50 ([1]; Homo sapiens, Hepatocyte, 48 h): < 5.00
19 | Nc1cc(N2CCCCC2)nc(N)[n+]1[O-] [Minoxidil] | < 4.00 | 1.2 µM | 1.19 µM | > 100 µM | –
20 | CO[C@@]12[C@H](COC(N)=O)C3=C(C(=O)C(C)=C(N)C3=O)N1C[C@@H]1N[C@@H]12 [Mitomycin C] | – | 7.1 µM | 7.1 µM | < 0.8 µM | pIC50 ([1]; Homo sapiens, Hepatocyte, 48 h): 4.83
21 | COC(=O)C1=C(C)NC(C)=C(C(=O)OCCN(C)Cc2ccccc2)C1c1cccc([N+](=O)[O-])c1 (stereo not shown) [Nicardipine] | – | 0.08 µM | 0.08 µM | – | –
22 | CS(=O)(=O)Nc1ccc([N+](=O)[O-])cc1Oc1ccccc1 [Nimesulide] | 3.36 | 21.1 µM | 21.1 µM | 60.5 µM | –
23 | CCN(CC)CC#CCOC(=O)C(O)(c1ccccc1)C1CCCCC1 (stereo not shown) [Oxybutynin] | – | 0.022 µM | 0.0224 µM | – | –
24 | Cc1ccc(N(CC2=NCCN2)c2cccc(O)c2)cc1 [Phentolamine] | < 4.00 | 0.09 µM | 0.09 µM | > 100 µM | –
25 | OC(CCN1CCCC1)(c1ccccc1)C1CCCCC1 (stereo not shown) [Procyclidine] | 4.01 | 2.19 µM | 2.19 µM | 117 µM | classification at 50× MOS threshold ([1]; PHH 48 h): false positive
26 | CN(C)C(=O)Oc1ccc[n+](C)c1 [Pyridostigmine] | < 3.70 | 1.1 µM | 1.1 µM | > 100 µM | –
27 | CN(CCOc1ccc(CC2SC(=O)NC2=O)cc1)c1ccccn1 (stereo not shown) [Rosiglitazone] | < 4.00 | 1 µM | 1.04 µM | – | DILI severity category [3, 9]: 2: High clinical DILI concern (N = 23); DILI severity category [3, 10]: 2. High Clinical DILI Concern; DILI category [3]: 2. High Clinical DILI Concern; FDA DILI Classification DILI severity score [4]: 3; LTKB DILI classification [4]: less DILI concern
28 | CN1C(C(=O)Nc2nccs2)=C(O)c2ccccc2S1(=O)=O [Sudoxicam] | < 4.00 | 77 µM | 77.1 µM | > 100 µM | –
29 | CC/C(=C(\c1ccccc1)c1ccc(OCCN(C)C)cc1)c1ccccc1 [Tamoxifen] | – | 0.4 µM | 0.4 µM | – | –
30 | Clc1ccccc1CN1CCc2sccc2C1 [Ticlopidine] | – | 8.1 µM | 8.07 µM | – | –
31 | O=C(O)COc1ccc(C(=O)c2cccs2)c(Cl)c1Cl [Tienilic Acid] | < 4.00 | 82.7 µM | 82.7 µM | 567 µM | DILI severity category [3, 9]: 1: Severe clinical DILI (N = 23); DILI severity category [3, 10]: 1. Severe Clinical DILI; DILI category [3]: 1. Severe Clinical DILI
32 | N[C@@H]1[C@H]2CN(c3nc4c(cc3F)c(=O)c(C(=O)O)cn4-c3ccc(F)cc3F)C[C@@H]12 [Trovafloxacin] | < 3.90 | – | – | > 125 µM | –
33 | CCCC(CCC)C(=O)O [Valproic acid] | < 4.00 | 693 µM | 693 µM | > 100 µM | –

Source: article PMC5515971, “Utility of spherical human liver microtissues for prediction of clinical drug-induced liver injury” (Archives of Toxicology, 2017)
